Source: US6043248A, “Alpha-substituted pyrimidine-thioalkyl and alkylether compounds as inhibitors of viral reverse transcriptase” (priority 1997, dated 2000)
Values joined by “and” are separate entries in the source; they are usually repeats but may differ in a detail not shown here. Equal entries are not always repeated.

Tests used:
[1] = biological target: T1, P236L viral reverse transcriptase (Human immunodeficiency virus type 1 group M subtype B, UniProt P04585, P823L); assay: inhibition of viral reverse transcriptase (P236L), cell free assay; assay type: biochemical; details: IC50 (Table I, P236L), 30 minutes at 37° C.
T1 construct: P236L viral reverse transcriptase is obtained by PNAS 90: 4713-4717 (1993); made in house
In short: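 E. coli-expressed wild-type or P236L RT extracts incubated with inhibitor 30 min at 37 °C in Tris pH 8.3 with MgCl₂, NaCl, DTT, NP-40, 10 μM [35S]-dNTP, poly rC/rG template and oligo dG/dT primer. Incorporated label counted on DE81 paper; reported as % inhibition and/or IC50.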

[2] = biological target: T2, viral reverse transcriptase (Wild Type) (Human immunodeficiency virus type 1 group M subtype B, UniProt P04585); assay: inhibition of viral reverse transcriptase (Wild Type), cell free assay; assay type: biochemical; details: for IC50: read-out: IC50 (Table II, Wild Type)
T2 construct: Viral reverse transcriptase (Wild Type) is found in extracts from bacterial clones; made in house; host or cells: Escherichia coli
From the text: The utility of the pyrimidine-thioalkyl and alkylether anti-AIDS compounds of Formula IA of this invention can be determined by their ability to inhibit viral reverse transcriptase, an enzyme essential for human immunodeficiency virus replication. This enzyme has characteristics which differentiate it from other known cellular polymerases and it is a unique enzyme which is not found in uninfected cells. Viral reverse transcriptase (Wild Type) is found in extracts from bacterial clones prepared according to the procedure described in AIDS Virus Reverse Transcriptase defined by high level expression in Escherichia coli, EMBO J. 6:3133-3137 (1987). P236L viral reverse transcriptase is obtained by PNAS 90: 4713-4717 (1993). Inhibition of this enzyme is determined in a cell free assay which measures the level of radioactive precursors incorporated into DNA. Extracts prepared according to the procedure of Science, 1125-1129 (1981) are incubated in a mixture of inhibitor, 20 mM dithiothreitol, 60 mM sodium chloride, 0.05% NP-40, 10 mM magnesium chloride, 50 mM Tris pH 8.3, 10 μM [^35 S]-labeled deoxynuleoside-5'-triphosphate, 10 μg/ml RNA template (poly rC or poly rG) and 5 μg/ml DNA primer (oligo dG or oligo dT) for 30 minutes at 37° C. Incorporation of radio-labeled percursor is determined by spotting aliquots of the reaction mixture on DE81 paper, washing the papers to remove unincorporated percursor, drying and determining counts. The results (IC50 means the concentration, in μM of drug, required to inhibit the reverse transcriptase activity (P236L and Wild Type) to the extent of 50%) of various assay(s) are combined and reported as % inhibition and/or IC50 (calculated) in Table I (P236L) and Table II (Wild Type).

SMILES | IC50 [1] | IC50 ([2]; 30 minutes at 37° C.) | further results
Cc1coc2cnc(C(C)Sc3nc(N)cc(Cl)n3)cc12 (centres unmarked) [Example 246, 4-Amino-6-chloro-2-(1-(3-methylfuro[2,3c]pyridine-5-yl)ethyl)thio-pyrimidine] | 31 nM | 24 nM | –
COC(=O)/C=C(\C)CSc1nc(N)cc(Cl)n1 [Example 208, (E)-4-[(4-Amino-6-chloro-2-pyrimidinyl)thio]-3-methyl-2-butenoic acid methyl ester] | 1000 nM | – | inhibition at 10 µM [2]: 79%
CC(Sc1nc(N)cc(Cl)n1)c1cc2ccccc2cn1 (centres unmarked) [Example 230, 4-Amino-6-chloro-2-(1-(3-isoquinolyl)ethyl)thio-pyrimidine] | 39 nM | 19 nM | –
Cc1coc2cnc(C(C)Sc3nc(N)cc(C(F)(F)F)n3)cc12 (centres unmarked) [Example 296, 4-Amino-6-trifluoromethyl-2-(1-(3-methyl-furo[2,3c]pyridin-5-yl)ethylthio)-pyrimidine] | 79 nM and 83 nM and 75 nM | 54 nM and 111 nM | –
CC(Sc1nc(N)cc(Cl)n1)c1cc2ccoc2cn1 (centres unmarked) [Example 238, 4-Amino-6-chloro-2-(1-(furo[2,3-c]pyridin-5-yl)ethyl)thio-pyrimidine] | 11 nM | 7 nM | –
CC(Sc1nc(N)cc(Cl)n1)c1cc(C2CCCCC2)ccn1 (centres unmarked) [Example 257] | 500 nM | – | inhibition at 10 µM [2]: 78%
CC(Sc1nc(N)cc(Cl)n1)c1cc2c(cn1)OCC2 (centres unmarked) [Example 247, 4-Amino-6-chloro-2-(1-(2,3-dihydrofuro[2,3c]pyridine-5-yl)ethyl)thio-pyrimidine] | 61 nM | 72 nM | –
CC(C)c1cncc(C(C)Sc2nc(N)cc(Cl)n2)c1 (centres unmarked) [Example 260, 4-amino-6-chloro-2-(1-(5-(1-methylethyl)-3-pyridyl)-ethyl)thio-pyrimidine] | 30 nM | 70 nM | –
CC(Sc1nc(N)cc(Cl)n1)c1cc2c(cn1)CCCC2 (centres unmarked) [Example 233, 4-Amino-6-chloro-2-(1-(3-(5,6,7,8-tetrahydroisoquinolyl))ethyl)thiopyrimidine] | 68 nM | 67 nM | –
C[C@H](Sc1nc(N)cc(Cl)n1)c1cc2ccoc2cn1 [Example 299, (S)-(-)-4-Amino-6-chloro-2-(1-(furo[2,3c]pyridin-5-yl)ethylthio)-pyrimidine] | 22 nM | 20 nM | –
CCc1coc2cnc(C(C)Sc3nc(N)cc(Cl)n3)cc12 (centres unmarked) [Example 249, 4-Amino-6-chloro-2-(1-(3-ethylfuro[2,3c]pyridine-5-yl)ethyl)thio-pyrimidine] | 10 nM | 23 nM | –
CC(Sc1nc(N)cc(Cl)n1)c1cc(C2CC2)ccn1 (centres unmarked) [Example 255] | 100 nM | – | inhibition at 1 µM [2]: 96%
CC(C)(C)c1ccnc(CSc2nc(N)cc(C(F)(F)F)n2)c1 [Example 273, 4-amino-6-trifluoromethyl-2-((4-(1,1-dimethylethyl)2-pyridyl)methyl)-thio-pyrimidine] | 100 nM | – | inhibition at 1 µM [2]: 75%
CCN(CC)C(=O)/C=C/C(C)Sc1nc(N)cc(Cl)n1 (centres unmarked) [Example 207, (E)-N,N-Diethyl-4-[(4-amino-6-chloro-2-pyrimidinyl)thio]-2-pentenamide] | 68 nM | 49 nM | –
COC(=O)C(Sc1nc(N)cc(Cl)n1)c1cc(C)ccn1 (centres unmarked) [Example 220, 4-Amino-6-chloro-2-(1-(4-methyl-2-pyridyl)-1-carbomethoxy-methyl)thio-pyrimidine] | 50000 nM | – | inhibition at 50 µM [2]: 19%
CCNC(=O)/C=C/CSc1nc(N)cc(Cl)n1 [Example 196, (E)-N-ethyl-4-[(4-amino-6-chloro-2-pyrimidinyl)thio]-2-butenamide] | 10000 nM | – | inhibition at 50 µM [2]: 71%
N#Cc1cc(Cl)nc(SCc2ccc3ccccc3c2)n1 [Example 276, 6-chloro-2-(2-naphthylmethyl)thio-4-pyrimidine carbonitrile] | 50000 nM | – | IC50 (Table II, Wild Type) ([2]; 30 minutes at 37° C.): INACTIVE
CC(Sc1nc(N)cc(Cl)n1)c1ccccn1 (centres unmarked) [Example 211, 4-Amino-6-chloro-2-(1-(2-pyridyl)ethyl)thio-pyrimidine] | 46 nM | 190 nM | –
CC(Sc1nc(N)cc(Cl)n1)c1cc(C#N)ccn1 (centres unmarked) [Example 214, 4-Amino-6-chloro-2-(1-(4-cyano-2-pyridyl)ethyl)thio-pyrimidine] | 178 nM | 487 nM | –

SMILES | IC50 [1] | IC50 ([2]; 30 minutes at 37° C.) | further results
CC(C)Oc1ccnc(C(C)Sc2nc(N)cc(Cl)n2)c1 (centres unmarked) [Example 263] | 100 nM | – | inhibition at 1 µM [2]: 86%
CC(Sc1nc(N)cc(C(F)(F)F)n1)c1cc2c(cn1)CCCC2 (centres unmarked) [Example 234, 4-Amino-6-trifluoromethyl-2-(1-(3-(5,6,7,8-tetrahydro-isoquinolyl))ethyl)thio-pyrimidine] | 170 nM | 131 nM | –
CC(Sc1nc(N)cc(Cl)n1)c1cc2c(C(F)(F)F)coc2cn1 (centres unmarked) [Example 294] | 104 nM | 233 nM | –
C=Cc1cc(C(C)Sc2nc(N)cc(Cl)n2)nc(Cl)c1OC (centres unmarked) [Example 244, 4-Amino-6-chloro-2-(1-(6-chloro-5-methoxy-4-vinyl-2-pyridyl)ethyl)thio-pyrimidine] | 186 nM | 141 nM | –
C=C(C)c1ccnc(C(C)Sc2nc(N)cc(Cl)n2)c1 (centres unmarked) [Example 221, 4-Amino-6-chloro-2-(1-(4-(1-methylethenyl)-2-pyridyl)ethyl)thio-pyrimidine] | 39 nM | 19 nM | –
CN(C(=O)/C=C/CSc1nc(N)cc(Cl)n1)c1ccccc1 [Example 200, (E)-N-methyl-N-phenyl-4-[(4-amino-6-chloro-2-pyrimidinyl)thio]-2-butenamide] | 1000 nM | – | inhibition at 10 µM [2]: 57%
CC(Sc1nc(N)cc(Cl)n1)c1cc(N(C)C)ccn1 (centres unmarked) [Example 259] | 30 nM | 87 nM | –
COC(=O)/C=C/CSc1nc(N)cc(Cl)n1 [Example 193, (E)-4-[(4-Amino-6-chloro-2-pyrimidinyl)thio]-2-butenoic acid methyl ester] | 930 nM | 5250 nM | –
Cc1cc2cc(C(C)Sc3nc(N)cc(Cl)n3)ncc2o1 (centres unmarked) [Example 242, 4-Amino-6-chloro-2-(1-(2-methylfuro[2,3c]pyridine-5-yl)ethyl)thio-pyrimidine] | 118 nM | 282 nM | –
Cc1coc2cnc([C@@H](C)Sc3nc(N)cc(Cl)n3)cc12 [Example 289, (R)-(+)-4-Amino-6-chloro-2-(1-(3-methylfuro[2,3c]pyridine-5-yl)ethyl)thio-pyrimidine] | 14 nM | 29 nM | –
CC(C)COc1ccc(C(C)Sc2nc(N)cc(Cl)n2)nc1Cl (centres unmarked) [Example 307, 4-amino-6-chloro-2-(((5-isobutoxy-6-chloro)-2-pyridyl)-ethyl)thio-pyrimidine] | 1000 nM | 5000 nM | –
Nc1cc(C(F)(F)F)nc(SCc2ccc3ccccc3c2)n1 [Example 270, 4-amino-6-trifluoromethyl-2-(2-naphthylmethyl)thio-pyrimidine] | 290 nM | 434 nM | –
Cc1coc2cnc([C@@H](C)Sc3nc(N)cc(C(F)(F)F)n3)cc12 [Example 298, (R)-(+)-4-Amino-6-trifluoromethyl-2-(1-(3-methylfuro[2,3c]pyridin-5-yl)ethylthio)-pyrimidine] | 79 nM | 113 nM | –
CCC(CC)c1ccnc(C(C)Sc2nc(N)cc(Cl)n2)c1 (centres unmarked) [Example 261, 4-amino-6-chloro-2-(1-(4-(1-ethylpropyl)-2-pyridyl)-ethyl)thio-pyrimidine] | 70 nM | 59 nM | –
CC(Sc1nc(N)cc(Cl)n1)c1cc(C2CCCC2)ccn1 (centres unmarked) [Example 253] | 200 nM | 203 nM | –
CCc1cc(C(C)Sc2nc(N)cc(Cl)n2)ncc1OC (centres unmarked) [Example 245, 4-Amino-6-chloro-2-(1-(4-ethyl-5-methoxy-2-pyridyl)ethyl)thio-pyrimidine] | 191 nM | 343 nM | –
CC(Sc1nc(N)cc(Cl)n1)c1ccc(OCc2ccccc2)c(Cl)n1 (centres unmarked) [Example 303, 4-amino-6-chloro-2-(((5-benzyloxy-6-chloro)-2-pyridyl)-ethyl)thio-pyrimidine] | 5000 nM | 50000 nM | –
CC(Sc1nc(N)cc(Cl)n1)c1cc(C(C)(C)C)ccn1 (centres unmarked) [Example 210, 4-Amino-6-chloro-2-(1-(4-(1,1-dimethyl)ethyl-2-pyridyl)ethyl)thio-pyrimidine] | 99 nM | 80 nM | –
